Source: patent US20240033257A1, “USE OF PPAR-DELTA INHIBITOR IN COMBINATION WITH IMMUNOTHERAPEUTIC DRUG FOR PREPARING ANTI-TUMOR DRUG” (THE FIRST HOSPITAL OF JILIN UNIVERSITY, priority 2021, published 2024)

Legend:
[1] = system: B16 tumor cells (mouse melanoma cells); experiment: B16 melanoma tumor-bearing mouse model, tumor growth; format: in vivo; conditions: low-dose FGK45.5 (75 μg in total); inhibitors intraperitoneal once a day Day 7 to Day 16; FIG. 2a
Experimental: We used a mouse B16 melanoma model extensively used in researches and having relatively high immunogenicity (C57BL/6 B16 Tumor-Bearing Mouse Model): C57BL/6 mice (8-10-week-old, n=5/group) were subcutaneously inoculated with 7×10^5 B16 tumor cells (mouse melanoma cells), and about 8 days after inoculation of tumor cells when tumors became touchable, anti-CD40 agonistic antibody was administered.
The mice were monitored every day, and tumors were measured with calipers every four days. The tumors were measured for length (a) and width (b), and tumor volume=ab^2/2.
Dosage regimen: These tumor-bearing mice were treated using low-dose 25 μg of FGK45.5 (mouse anti-CD40 agonistic antibody) for three times, 75 μg in total (at Day 8, Day 11, and Day 14) or high-dose 40 μg for 5 times, 200 μg in total (at Day 8, Day 11, Day 14, Day 17, and Day 20) or 40 μg with Isotype Control Rat IgG for 5 times (at Day 8, Day 11, Day 14, Day 17, and Day 20). Subcutaneous injection was made between the tumor and the draining lymph node at the groin. 72 hours after the last injection of each group, samples of mouse blood serum were tested for alanine transaminase (ALT, a known indicator of liver tissue injury).
The establishment of the B16 melanoma tumor-bearing mouse model and the dosage regimens of low-dose and high-dose FGK45.5 followed Example 1. […]

[2] = system: lymphocytes in draining lymph nodes; experiment: Lymphocyte subpopulations in draining lymph nodes of B16 tumor-bearing mice (flow cytometry, cell counting); format: in vivo, mouse
Experimental: The C57BL/6 B16 tumor-bearing mouse model (mice subcutaneously inoculated with 7×10^5 B16 cells, 8 days after inoculation of tumor cells, mice with tumors touchable) of Example 1 was used. The experiment included the treatment group of low-dose FGK45.5, the treatment group of low-dose FGK45.5 in combination with the PPARδ inhibitor, the treatment group of using the PPARδ inhibitor solely, and the isotype control Rat IgG treatment group. 24 hours after the last injection of GSK3787 (i.e., 72 hours after the last FGK45.5 injection), the mice of all group were sacrificed. Cells at lymph nodes of mice from all groups were sampled for flow cytometry assays and cell counting.

[3] = system: B cells from draining lymph nodes; experiment: Inhibition of CFSE-labelled CD4+ T cell proliferation by B cells from draining lymph nodes of treated tumor-bearing mice; format: cell-based, mouse; conditions: B cells:T cells 1:1, co-cultured 72 hours; FIG. 5a
Experimental: The next point was to verify whether the PPARδ inhibitor enhances immunotherapy through affecting B cells. First, the ability of B cells in draining lymph nodes of tumor-bearing mice treated differently to inhibit proliferation of activated T cells was examined in vitro. Purified C D4^+ T cells from normal mice were labelled using 2.5 μM CFSE in vitro. The CFSE-labelled cells were then resuspended in complete RPMI 1640 culture medium at 1×10^6/ml, and transferred into a 96-well plate that had been coated with 10 μg/ml anti-CD3ε antibody at 4° C. overnight. B cells purified from draining lymph nodes and the foregoing T cells (1:1) were co-cultured for 72 hours in the foregoing 96-well plate containing 1 μg/ml anti-CD28 mAb, and a flow cytometry assay was conducted. The cell proliferation rate of the CFSE-labelled T cells was calculated using the equation: (1-MFI value of CFSE of T Cells in Experimental Group/MFI value of CFSE of B-cell-free T Cells in Control Group)×100%. MFI refers to the mean fluorescence intensity.

B16 tumor = experiment: CD19+ B cell eradication experiment in B16 tumor-bearing mice, tumor growth; format: in vivo, mouse; conditions: 250 μg anti-CD19 antibody (clone 1d3) intraperitoneal at day 6, 7 and 15; low-dose FGK45.5; FIG. 5b
Experimental: To some of the B16 tumor-bearing mice, the anti-CD19 antibody was used first to kill B cells, and then Rat IgG or FGK45.5 or FGK45.5 combined with the PPARδ inhibitor (GSK3787) was administered for treatment. Growth of the tumors was observed. Treatment with Rat IgG, FGK45.5, and FGK45.5 in combination with the PPARδ inhibitor were taken as control groups.
CD19^+ B cell Eradication Experiment: At the 6th day, 7th day, and 15th day after inoculation of B16 cells, 250 μg anti-CD19 antibody (clone 1d3) was administered to tumor-bearing mice through intraperitoneal injection, and the eradication rate of B cells as measured using FACS should be 90% or more.

[4] = system: CD19+CD24hiIgDlo/− B cells; experiment: Surface marker, PPARδ and Ki67 flow cytometry of B cell subpopulations in draining lymph nodes; format: in vivo, mouse
Experimental: For verifying this assumption, the experimental scheme of Example 4 was used. The mice of all groups were sacrificed at the 24th hour after the last injection of GSK3787 (i.e., the 72nd hour after the last FGK45.5 injection), and various surface marker analyses were conducted on the B cells isolated from lymph nodes of tumor-bearing mice to identify surface markers of B cell subpopulations having immunosuppressive effects and the effects of different treatments on B cell subpopulations having immunosuppressive effects.
At the 24th hour after the last GSK3787 injection, tumor draining lymph nodes of differently treated mice were sampled. The lymph nodes at the same body portion in natural, tumor-free mice were also sampled as the control group. The lymph nodes were ground into single-cell suspension. Cells from different lymph nodes were stained using various fluorescence labeling antibodies for flow cytometry assays.

[5] = system: CD19+CD24hiIgDlo/− B cells; experiment: Co-culture of sorted B cell subpopulations from treated mice with CFSE-labelled CD4+ T cells; format: cell-based, mouse; conditions: B cells:T cells 1:1, 72 hours; FIG. 8a
Experimental: For evaluating the function-regulating effects on CD19^+CD24^hiIgD^lo/− B cells, the experimental scheme of Example 4 was employed. 24 hours after the last GSK3787 injection (i.e., 72 hours after the last FGK45.5 injection), mice of all groups were sacrificed. CD19^+CD24^hiIgD^lo/− B cell population and CD19^+CD24^loIgD^hiB cell population were isolated form draining lymph nodes of differently treated tumor-bearing mice using flow cytometry. Purified CD4^+ T cells from normal mice were labelled with 2.5 μM CFSE in vitro. The CFSE-labelled cells were resuspended in complete RPMI 1640 culture medium at 1×10^6/ml, and transferred into a 96-well plate coated with 10 μg/ml anti-CD3E antibody at 4° C. overnight. The B cells purified from draining lymph nodes and the foregoing T cells (1:1) were co-cultured for 72 hours in the foregoing 96-well plate containing 1 μg/ml anti-CD28 mAb for use in flow cytometry assays. The proliferation of the CFSE-labelled T cells was calculated using the equation: (1-MFI value of CFSE of T Cells in Experimental Group/MFI value of CFSE of B-cell-free T Cells in Control Group)[…].

[6] = system: MB49 cells (mouse bladder cancer cells); experiment: MB49 bladder cancer tumor-bearing mouse model, tumor growth; format: in vivo; conditions: doses and regimens of FIG. 2a; FIG. 9
Text: From the results above, we anticipate that the PPARδ inhibitor could also enhance therapeutic effects of immunotherapeutic drug on tumors in other tumor models. In order to verify such possibility, we examined the therapeutic effects of the PPARδ inhibitor in combination with FGK45.5 on MB49 bladder cancer cell tumor-bearing mice. C57BL/6 mice (8 to 10 weeks, n=5/group, 4 groups) are subcutaneously inoculated with 7×10^5 MB49 cells (mouse bladder cancer cells) and about 8 days after inoculation of tumor cells when tumors became touchable, Rat IgG, or FGK45.5, or PPARδ inhibitor (GSK3787), or FGK45.5 in combination with PPARδ inhibitor (GSK3787) was administered. Tumor growth condition was monitored.

[7] = system: human CD19+CD24hiIgDlo/− B cells; experiment: Suppression of T cell IFNγ secretion by human CD19+CD24hiIgDlo/− B cells cultured with GSK3787; format: cell-based; conditions: cultured 24 hours with GSK3787
Experimental: B cells were isolated and gathered from the peripheral blood of multiple normal blood donors or patients, and CD19^+CD24^hiIgD^lo/− B cells were isolated from the gathered B cells and cultured for 24 hours in complete RPMI 1640 culture medium with or without the PPARδ inhibitor GSK3787. Then these B cells were washed twice to remove the PPARδ inhibitor, resuspended in complete RPMI 1640 culture medium at 1×10^6/ml. CD4^+CD25^− T cells were isolated from blood of normal blood donors. The treated CD19^+CD24^hiIgD^lo/− B cells and these T cells (1:1) were co-cultured for 48 hours, Dynabeads were coated with anti-human CD3 mAb and anti-human CD28 mAb and placed on a 96-well U-shaped culture plate. Golgi^plug (BD Biosciences), PMA and ionomycin were added into the culture medium together for 6 hours. CD4^+ T cells were surface stained, perforated in the cytomembrane, and stained intracellularly using fluorescence labelled anti-human IFNγ, then analyzed using flow cytometry.

Compound | anti-tumor effects (speed of tumor growth) [1] | proportions of CD4/CD19 cells in draining lymph nodes ([2]; FIG. 4c) | absolute count of CD45+ cells in draining lymph nodes ([2]; low-dose FGK45.5, 24 hours after last GSK3787 injection, FIG. 4a) | absolute count and proportion of CD11c+ cells in draining lymph nodes ([2]; low-dose FGK45.5, FIG. 4b) | cell counts of CD4+ T and CD8+ T cells and their proportions in CD45+ cells in draining lymph nodes ([2]; low-dose FGK45.5, FIG. 4b) | inhibition of CD4 T cell proliferation by B cells from draining lymph nodes of treated tumor-bearing mice [3] | therapeutic effects on B16 tumors with B cells eradicated (B16 tumor) | proportion of the CD19+CD24hiIgDlo/− B cell subpopulation in draining lymph nodes ([4]; B16 tumor-bearing mice, 24th hour after last GSK3787 injection, FIGS. 7a, b) | Ki67 expression of CD19+CD24hiIgDlo/− B cells ([4]; FIG. 7e, f) | suppressive effects of CD19+CD24hiIgDlo/− B cells from draining lymph nodes of tumor-bearing mice on proliferation of activated CD4+ T cells [5] | therapeutic effects on MB49 tumors, GSK3787 in combination with FGK45.5 [6] | therapeutic effects on MB49 tumors, used solely [6] | suppressive activity of human CD19+CD24hiIgDlo/− B cells (IFNγ secretion of activated T cells) ([7]; B cells of cancer patients (NSCLC)) | suppressive activity of human CD19+CD24hiIgDlo/− B cells (IFNγ secretion of activated T cells) ([7]; B cells of healthy subjects)
O=C(NCCS(=O)(=O)c1ccc(C(F)(F)F)cn1)c1ccc(Cl)cc1 [GSK3787] | almost no anti-tumor effects | basically comparable | did not change | basically the same | consistent | decreased inhibition | lost its function of enhancing anti-tumor effects of FGK45.5 | decreased significantly | reduced increase in Ki67 expression | reduced suppressive effects | could further improve the effect of FGK45.5 | no therapeutic effects | significantly reduced | significantly reduced
O=C(Nc1ccncc1)c1cc([N+](=O)[O-])ccc1Cl [T0070907] | almost no anti-tumor effects |  |  |  |  |  |  |  |  |  |  |  |  | 
